Experimental data reported in patent US20260231992A1, “A PROCESS FOR MYCOTOXIN DETOXIFICATION USING LACTOCOCCUS LACTIS” (priority 2023, published 2026).
In brackets after ≈: the same amount, converted by molar mass. Read-outs that look alike come from different tables or passages of the source.

Assays:
Type in all cases: cell-based
[1] = tested on: Mycobacterium smegmatis NCIM 5138; test: microbe, parasite or virus in culture; settings: Mycolicibacterium smegmatis, NCIM5138; Mycobacterium smegmatis NCIM 5138, 48 h
[2] = tested on: Aspergillus niger BIONCL 12; test: Antifungal MIC, RPMI-1640, resazurin; settings: Aspergillus niger BIONCL 12, 48 to 72 h at 28° C.
[3] = tested on: Staphylococcus aureus NCIM 2079; test: microbe, parasite or virus in culture; settings: Staphylococcus aureus NCIM 2079, 24 h at 37° C.
[4] = tested on: Candida albicans NCIM 3557; test: Antifungal MIC, RPMI-1640, resazurin; settings: Candida albicans NCIM 3557, 48 to 72 h at 28° C.
[5] = tested on: Bacillus subtilis NCIM 2010; test: microbe, parasite or virus in culture; settings: Bacillus subtilis NCIM 2010, 24 h at 37° C.
[6] = tested on: Fusarium graminearum MTCC1893; test: microbe, parasite or virus in culture
[7] = tested on: Escherichia coli NCIM 2065; test: microbe, parasite or virus in culture; settings: Escherichia coli NCIM 2065, 24 h at 37° C.
[8] = tested on: Pseudomonas desmolyticum NCIM 2112; test: microbe, parasite or virus in culture; settings: Pseudomonas desmolyticum NCIM 2112, 24 h at 37° C.
[9] = tested on: Serratia marcescens NCIM 2919; test: microbe, parasite or virus in culture; settings: Serratia marcescens NCIM 2919, 24 h at 37° C.
[10] = tested on: Fusarium verticillioides BIONCL4; test: Antifungal MIC, RPMI-1640, resazurin; settings: Fusarium verticillioides BIONCL4, 48 to 72 h at 28° C.
[11] = tested on: Gram-positive and Gram-negative bacteria; test: Antibacterial MIC, whole panel of tested strains; settings: span over all tested bacterial strains; read-out: MICs against tested bacterial strains
fungal strains tested = test: microbe, parasite or virus in culture; settings: Fusarium graminearum, read-out: MIC against the fungal strains tested
[12] = NCIM3557, read-out: MIC (converted)
[13] = Fusarium graminearum, MTCC1893, Fusarium graminearum MTCC1893, 48 to 72 h at 28° C.

SMILES | MIC [1] | MIC [2] | MIC ([2]; BIONCL12, read-out: MIC) | MIC ([3]; NCIM2079, read-out: MIC) | MIC [4, 12] | MIC ([5]; NCIM2010, read-out: MIC) | MIC [6, 13] | MIC ([7]; NCIM2065, read-out: MIC) | MIC ([8]; NCIM2112, read-out: MIC) | MIC ([9]; NCIM2919, read-out: MIC) | MIC ([10]; read-out: MIC (converted)) | MIC [11] | other results
CC(C)(C)c1ccc(O)c(C(C)(C)C)c1 [C-1, 2,4-di-tert-butylphenol] | 3.12 µg/mL (≈ 15.1 µM) | 12.50 µg/mL (≈ 60.6 µM) | 12.5 µg/mL (≈ 60.6 µM) | 6.25 µg/mL (≈ 30.3 µM) | 12.5 µg/mL (≈ 60.6 µM) | 3.12 µg/mL (≈ 15.1 µM) | 6.25 µg/mL (≈ 30.3 µM) | 3.12 µg/mL (≈ 15.1 µM) | 6.25 µg/mL (≈ 30.3 µM) | 1.56 µg/mL (≈ 7.56 µM) | 6.25 µg/mL (≈ 30.3 µM) | 1.56 to 25 µg/mL (≈ 7.56 to 121 µM) | –
CC1=C(O)C(=O)C(O)CO1 (centres unmarked) [C-2, 3,5-dihydroxy-6-methyl-2,3-dihydro-4H-pyran-4-one] | 12.5 µg/mL (≈ 86.7 µM) | – | 3.12 µg/mL (≈ 21.6 µM) | 3.12 µg/mL (≈ 21.6 µM) | 3.12 µg/mL (≈ 21.6 µM) | 6.25 µg/mL (≈ 43.4 µM) | 6.25 µg/mL (≈ 43.4 µM) | 6.25 µg/mL (≈ 43.4 µM) | 6.25 µg/mL (≈ 43.4 µM) | 3.12 µg/mL (≈ 21.6 µM) | 3.12 µg/mL (≈ 21.6 µM) | 1.56 to 25 µg/mL (≈ 10.8 to 173 µM) | MIC (fungal strains tested): 3.12 to 6.25 µg/mL (≈ 21.6 to 43.4 µM)
NC(=O)c1cnccn1 [C-3, Pyrazine-2-carboxamide] | 12.5 µg/mL (≈ 102 µM) | 25.0 µg/mL (≈ 203 µM) | 25 µg/mL (≈ 203 µM) | 25 µg/mL (≈ 203 µM) | 12.5 µg/mL (≈ 102 µM) | 25 µg/mL (≈ 203 µM) | 25 µg/mL (≈ 203 µM) | 25 µg/mL (≈ 203 µM) | 25 µg/mL (≈ 203 µM) | 25 µg/mL (≈ 203 µM) | 12.5 µg/mL (≈ 102 µM) | 1.56 to 25 µg/mL (≈ 12.7 to 203 µM) | MIC [3]: 25.0 µg/mL (≈ 203 µM); MIC [4]: 12.5 µg/mL (≈ 102 µM); MIC [5]: 25.0 µg/mL (≈ 203 µM); MIC ([6]; Fusarium graminearum MTCC1893, 48 to 72 h at 28° C.): 50.0 µg/mL (≈ 406 µM); MIC [7]: 25.0 µg/mL (≈ 203 µM); MIC [8]: 25.0 µg/mL (≈ 203 µM); MIC [9]: 25.0 µg/mL (≈ 203 µM); MIC [10]: 12.5 µg/mL (≈ 102 µM)
